Data set [1] is described as follows: physchem. As to conditions: octanol/water, pH 7.4.
Another data set relates to Francisella tularensis. Briefly: microbe, parasite or virus in culture. As to conditions: Schu S4.
The test system of another data set is Escherichia coli. Description: microbe, parasite or virus in culture. The conditions noted are these: ATCC 25922.
The nature of data set [2]: physchem. The conditions noted are these: octanol/water, pH 5.
In data set [3] the test system is Mycobacterium tuberculosis. Briefly: microbe, parasite or virus in culture. As to conditions: H37Rv.
Data set [4] can be described thus: physchem. As to conditions: octanol/water, pH 6.5.
Data set [5] in a line: physchem. The conditions noted are these: octanol/water, pH 1.5.
The next data set has as its system Staphylococcus aureus. Description: microbe, parasite or virus in culture. The conditions noted are these: ATCC 29213.

Values after ≈ are worked out from the molar mass of the structure shown. Bounds are passed on as bounds.

Take `CO[C@@H]1[C@@H](OC(N)=O)[C@@H](O)[C@H](Oc2ccc3c(O)c(NC(=O)c4cc(CC=C(C)C)c(O)c(CN(C)C(=O)CNC(C)=O)c4)c(=O)oc3c2C)OC1(C)C`: the logD (commonly the decadic logarithm of the distribution of all forms, ionised or not, between an organic phase and buffer at a given pH) was found to be 0.67 in the data set “physchem [1]”, 1.32 in “physchem [2]”, 1.19 in “physchem [4]” and 1.33 in “physchem [5]”. Besides, the MIC in the data set with Francisella tularensis is greater than 64 µg/mL; against Escherichia coli it was greater than 64 µg/mL; in data set [3] it was 2.5 µg/mL (≈ 3.31 µM); against Staphylococcus aureus, 16 µg/mL (≈ 21.2 µM).

As to `CCN(CC)Cc1cc(C(=O)Nc2c(O)c3ccc(O[C@@H]4OC(C)(C)[C@H](OC)[C@@H](OC(N)=O)[C@H]4O)c(C)c3oc2=O)cc(CC=C(C)C)c1O`, the logD in the data set “physchem [1]” worked out at 1.53; in “physchem [2]”, 0.81; in “physchem [4]” it was 1.7; in the data set “physchem [5]”, 0.42. Moreover, the MIC is greater than 64 µg/mL in the data set with Francisella tularensis, greater than 64 µg/mL against Escherichia coli, greater than 10 µg/mL in data set [3] and greater than 64 µg/mL with Staphylococcus aureus.

`CO[C@@H]1[C@@H](OC(N)=O)[C@@H](O)[C@H](Oc2ccc3c(O)c(NC(=O)c4cc(CC=C(C)C)c(O)c(CN(C)C(=O)[C@H](C)OC(C)=O)c4)c(=O)oc3c2C)OC1(C)C`: the logD was 1.97 in “physchem [1]”, 2.62 in the data set “physchem [2]”, 2.49 in “physchem [4]” and 2.62 in “physchem [5]”. Also, the MIC is greater than 64 µg/mL with Francisella tularensis, greater than 64 µg/mL in the data set with Escherichia coli, 2.5 µg/mL (≈ 3.25 µM) in data set [3] and 16 µg/mL (≈ 20.8 µM) in the data set on Staphylococcus aureus.

With `CO[C@@H]1[C@@H](OC(N)=O)[C@@H](O)[C@H](Oc2ccc3c(O)c(NC(=O)c4cc(CC=C(C)C)c(O)c(CN5CCCC5)c4)c(=O)oc3c2C)OC1(C)C`, the logD in “physchem [1]” came out at 1.39; in the data set “physchem [2]”, 0.38; in the data set “physchem [4]” it was 1.34; in “physchem [5]”, 0.11. Also, the MIC against Francisella tularensis was greater than 64 µg/mL; in the data set on Escherichia coli, greater than 64 µg/mL; in data set [3], 10 µg/mL (≈ 14.4 µM); in the data set on Staphylococcus aureus, greater than 64 µg/mL.

Consider `CO[C@@H]1[C@@H](OC(N)=O)[C@@H](O)[C@H](Oc2ccc3c(O)c(NC(=O)c4cc(CC=C(C)C)c(O)c(CN(C)C(=O)CCC(=O)O)c4)c(=O)oc3c2C)OC1(C)C`, for which the logD was -1.7 in the data set “physchem [1]”, 0.93 in “physchem [2]”, -0.61 in the data set “physchem [4]” and 2.25 in the data set “physchem [5]”. Besides, the MIC in the data set on Francisella tularensis is greater than 64 µg/mL; against Escherichia coli, greater than 64 µg/mL; in data set [3], greater than 10 µg/mL; in the data set with Staphylococcus aureus it was 64 µg/mL (≈ 84.7 µM).

Take `CO[C@@H]1[C@@H](OC(N)=O)[C@@H](O)[C@H](Oc2ccc3c(O)c(NC(=O)c4cc(CC=C(C)C)c(O)c(CN5CCN(c6ncccn6)CC5)c4)c(=O)oc3c2C)OC1(C)C`: the logD in “physchem [1]” was 2.48; in “physchem [2]” it was 1.46; in “physchem [4]”, 2.63; in “physchem [5]” it was -0.46. Besides, the MIC was greater than 64 µg/mL in the data set on Francisella tularensis, greater than 64 µg/mL with Escherichia coli, greater than 10 µg/mL in data set [3] and greater than 64 µg/mL against Staphylococcus aureus.

For the molecule `CO[C@@H]1[C@@H](OC(N)=O)[C@@H](O)[C@H](Oc2ccc3c(O)c(NC(=O)c4cc(CC=C(C)C)c(O)c(CN5CCN(CCCN(C)C)CC5)c4)c(=O)oc3c2C)OC1(C)C`, the logD was -0.59 in the data set “physchem [1]”, -2.97 in “physchem [2]”, -1.32 in the data set “physchem [4]” and -4 in “physchem [5]”. Besides, the MIC in the data set with Francisella tularensis was greater than 64 µg/mL; in the data set with Escherichia coli, greater than 64 µg/mL; in data set [3], greater than 10 µg/mL; in the data set on Staphylococcus aureus, greater than 64 µg/mL.

As to `CO[C@@H]1[C@@H](OC(N)=O)[C@@H](O)[C@H](Oc2ccc3c(O)c(NC(=O)c4cc(CC=C(C)C)c(O)c(CN(C)C(=O)CCCS(N)(=O)=O)c4)c(=O)oc3c2C)OC1(C)C`, the logD in the data set “physchem [1]” is 0.62; in “physchem [2]”, 1.27; in “physchem [4]”, 1.14; in “physchem [5]”, 1.27. Also, the MIC against Francisella tularensis is greater than 64 µg/mL; with Escherichia coli it was greater than 64 µg/mL; in data set [3], 10 µg/mL (≈ 12.4 µM); in the data set on Staphylococcus aureus, 16 µg/mL (≈ 19.9 µM).

As to `CO[C@@H]1[C@@H](OC(N)=O)[C@@H](O)[C@H](Oc2ccc3c(O)c(NC(=O)c4cc(CC=C(C)C)c(O)c(CN(C)C(=O)C(C)(C)C)c4)c(=O)oc3c2C)OC1(C)C`, the logD in “physchem [1]” was determined as 3.58; in the data set “physchem [2]”, 4.23; in the data set “physchem [4]”, 4.1; in the data set “physchem [5]”, 4.23. For the same molecule, the MIC against Francisella tularensis was 64 µg/mL (≈ 86.5 µM); in the data set on Escherichia coli, greater than 64 µg/mL; in data set [3] it was greater than 10 µg/mL; against Staphylococcus aureus, 16 µg/mL (≈ 21.6 µM).

Turning to `CO[C@@H]1[C@@H](OC(N)=O)[C@@H](O)[C@H](Oc2ccc3c(O)c(NC(=O)c4cc(CC=C(C)C)c(O)c(CN(C)C(=O)CN(C)C)c4)c(=O)oc3c2C)OC1(C)C`, the logD in “physchem [1]” is 1.32; in “physchem [4]”, 1.15; in the data set “physchem [5]”, -1.18. Further, the MIC is greater than 64 µg/mL with Francisella tularensis, greater than 64 µg/mL in the data set on Escherichia coli, greater than 10 µg/mL in data set [3] and greater than 64 µg/mL against Staphylococcus aureus.

As for `CO[C@@H]1[C@@H](OC(N)=O)[C@@H](O)[C@H](Oc2ccc3c(O)c(NC(=O)c4cc(CC=C(C)C)c(O)c(CN(C)C(=O)CS(C)(=O)=O)c4)c(=O)oc3c2C)OC1(C)C`, the logD in “physchem [1]” was found to be 0.6; in the data set “physchem [2]”, 1.28; in the data set “physchem [4]” it was 1.15; in “physchem [5]”, 1.29. Besides, the MIC in the data set on Francisella tularensis was greater than 64 µg/mL; in the data set on Escherichia coli, greater than 64 µg/mL; in data set [3], greater than 10 µg/mL; with Staphylococcus aureus it was greater than 64 µg/mL.

In the case of `CO[C@@H]1[C@@H](OC(N)=O)[C@@H](O)[C@H](Oc2ccc3c(O)c(NC(=O)c4cc(CC=C(C)C)c(O)c(CN(C)C(=O)c5ccccc5)c4)c(=O)oc3c2C)OC1(C)C`, the logD came to 3.63 in “physchem [1]”, 4.28 in “physchem [2]”, 4.15 in the data set “physchem [4]” and 4.28 in “physchem [5]”. Further, the MIC against Francisella tularensis is greater than 64 µg/mL; in the data set on Escherichia coli, greater than 64 µg/mL; in data set [3], greater than 10 µg/mL; against Staphylococcus aureus, greater than 64 µg/mL.

For `CO[C@@H]1[C@@H](OC(N)=O)[C@@H](O)[C@H](Oc2ccc3c(O)c(NC(=O)c4cc(CC=C(C)C)c(O)c(CN(C)C(=O)Cc5nnn[nH]5)c4)c(=O)oc3c2C)OC1(C)C`, the logD in “physchem [1]” was -0.35; in the data set “physchem [2]”, 1.13; in “physchem [4]”, 0.24; in the data set “physchem [5]” it was 1.9. In addition, the MIC in the data set with Francisella tularensis was greater than 64 µg/mL; in the data set on Escherichia coli it was greater than 64 µg/mL; in data set [3], greater than 10 µg/mL; with Staphylococcus aureus, greater than 64 µg/mL.

Source of the values: ChEMBL document CHEMBL1833938 (Bioorg Med Chem Lett, 2011).
